A short description of series [1]: Mean residence time in rat at 0.5 mg/kg, iv. Type of series: ADME, organism-based. Also noted: dose 0.5 mg/kg, route intravenous. The note with it: in vivo.
The nature of series [2]: Clearance in rat at 0.5 mg/kg, iv. As to conditions: in vivo. Also noted: dose 0.5 mg/kg, route intravenous. Type of series: ADME, organism-based.
For series [3], the target named is T1, C-X-C chemokine receptor type 3 (Homo sapiens, UniProt P49682).
T1 sequence (P49682 whole entry): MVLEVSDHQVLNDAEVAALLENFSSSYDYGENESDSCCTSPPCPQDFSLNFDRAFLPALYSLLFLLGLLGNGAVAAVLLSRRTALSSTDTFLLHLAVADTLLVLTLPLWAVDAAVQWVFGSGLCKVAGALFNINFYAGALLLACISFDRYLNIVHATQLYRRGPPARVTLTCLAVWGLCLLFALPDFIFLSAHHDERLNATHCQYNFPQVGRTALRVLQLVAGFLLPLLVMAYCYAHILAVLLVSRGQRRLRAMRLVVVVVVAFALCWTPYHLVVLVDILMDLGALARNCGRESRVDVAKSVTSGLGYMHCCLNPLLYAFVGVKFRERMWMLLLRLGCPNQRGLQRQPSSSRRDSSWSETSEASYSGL
The experiment in a line: Displacement of [125I]IP-10 from CXCR3 receptor expressed in human PBMC in EDTA-anti-coagulated human plasma. Background: Loss of bound radioactivity is the signal in a displacement assay; it reports binding, not function.

The target in series [4] is T1, C-X-C chemokine receptor type 3. Put plainly: Displacement of [125I]IP-10 from CXCR3 receptor expressed in human PBMC in RPMI-1640 buffer supplemented with 0.5% BSA.
A short description of series [5]: Oral bioavailability in rat at 2 mg/kg. The note with it: in vivo. Type of series: ADME, organism-based.

Each structure is given as a SMILES string.

In general, MRT refers to a mean duration of stay, worked out from the concentration-time curve. A word on the clearance: it is the volume of plasma or blood freed of the substance per unit of time. Lower therefore signals a low capacity for elimination. One may read the IC50 as the concentration at which inhibition is half-maximal. Read a low IC50 as greater potency. In general, bioavailability refers to the share of a dose that reaches the circulation, judged against a reference dose that is usually intravenous. A high value points to good availability. In series [1], `CCS(=O)(=O)CCN(C(=O)Cc1ccc(F)c(C(F)(F)F)c1)[C@H](C)c1nc2ncccc2cc1-c1ccc(C#N)cc1` came in with an MRT of 22.2 min. In series [2], this molecule had a clearance of 39.7 mL/min/kg. Also, the values for the IC50 in series [3] and in series [4] were 27 nM and 2 nM, respectively. In series [5], this molecule registered a bioavailability of 31%.
In turn, `CCS(=O)(=O)CCN(C(=O)Cc1ccc(F)c(C(F)(F)F)c1)[C@H](C)c1nc2c(c(=O)n1-c1ccc(C#N)cc1)CCCN2C` displayed an MRT in series [1] of 21 min. The clearance in series [2] was 63 mL/min/kg. The IC50 in series [3] came to 60 nM; in series [4], 4 nM.
On to `CCS(=O)(=O)CCN(C(=O)Cc1ccc(F)c(C(F)(F)F)c1)[C@H](C)c1nc2ncccc2c(=O)n1-c1ccc(C#N)cc1`, for which the mean residence time MRT in series [1] was found to be 31.8 min. In addition, the clearance in series [2] was 39.7 mL/min/kg. This molecule also yielded a bioavailability in series [5] of 47%.
Consider `CCS(=O)(=O)CCN(C(=O)Cc1ccc(F)c(C(F)(F)F)c1)[C@H](C)c1nc2ccccc2nc1-c1ccc(C#N)cc1`, for which the half-maximal inhibitory concentration (IC50) came out at 121 nM in series [3] and 9 nM in series [4].
Molecule `CCS(=O)(=O)CCN(C(=O)Cc1ccc(F)c(C(F)(F)F)c1)[C@H](C)c1nc2ccccc2cc1-c1ccc(C#N)cc1` came in with an MRT in series [1] of 90 min. Also, the clearance in series [2] was 42.2 mL/min/kg. Further, the IC50 was 21 nM in series [3] and 0.8 nM in series [4]. The bioavailability in series [5] came to 17%.
Take `CCS(=O)(=O)CCN(C(=O)Cc1ccc(F)c(C(F)(F)F)c1)[C@H](C)c1nn2ccccc2c1-c1ccc(C#N)cc1`: the IC50 in series [3] stood at 523 nM; in series [4], 18 nM.
By Ki is commonly meant the equilibrium dissociation constant of an inhibitor or competing ligand from its target. A high value points to lower affinity. In series [1], `CCS(=O)(=O)CCN(C(=O)Cc1ccc(F)c(C(F)(F)F)c1)[C@H](C)c1nc2ccccn2c1-c1ccc(C#N)cc1` returned an MRT of 15.6 min. In series [2], the clearance is 36.3 mL/min/kg. In addition, in series [3], the half-inhibitory concentration (IC50) was determined as 21 nM. The inhibitory constant (Ki) in series [4] amounted to 3 nM. Also, in series [5], the bioavailability worked out at 24%.
As for `CCS(=O)(=O)CCN(C(=O)Cc1ccc(F)c(C(F)(F)F)c1)[C@H](C)c1cc2ccccc2nc1-c1ccc(C#N)cc1`, the IC50 in series [3] was 115 nM; in series [4], 5 nM.
In turn, `CCS(=O)(=O)CCN(C(=O)Cc1ccc(F)c(C(F)(F)F)c1)[C@H](C)c1nc2ccccn2c(=O)c1-c1ccc(C#N)cc1` registered an MRT in series [1] of 84 min. In series [2], this molecule had a clearance of 4 mL/min/kg. The same molecule came in with a bioavailability in series [5] of 24%.
Take `CCS(=O)(=O)CCN(C(=O)Cc1ccc(F)c(C(F)(F)F)c1)[C@H](C)c1nc2ccccc2n1-c1ccc(C#N)cc1`: the 50% inhibitory concentration (IC50) in series [3] is 35 nM; in series [4] it was 6 nM.
`CCS(=O)(=O)CCN(C(=O)Cc1ccc(F)c(C(F)(F)F)c1)[C@H](C)c1nc2ncccn2c1-c1ccc(C#N)cc1`: in series [3], the IC50 is 79 nM.
